Test results reported in patent US20110059114A1, “Compositions and Methods for the Treatment of Radioresistant Glioma Stem Cells” (DUKE UNIVERSITY, priority 2009, published 2011).

Key:
[1] = system: T4302 CD133+ glioma stem cells; assay: Growth curve, CellTiter-Glo Luminescent Cell Viability Assay; format: cell-based, human; details: without radiation treatment, day five; 2 μM DAPT or 0.5 μM L685,458
Description: FIG. 1 is a series of graphs illustrating that γ-secretase inhibitors reduce cell growth and clonogenic survival of glioma stem cells following radiation. (A) T4302 CD133+ glioma stem cells were transfected with a Notch-responsive luciferase reporter (RBP-JK reporter) pre-mixed with the vector directing constitutive expression of Renilla luciferase. Cells were left unirradiated or irradiated at 3 Gy, and were then collected to measure luciferase activities at time points as indicated. […] The relative mRNA levels of Hes2 were determined by quantitative real-time PCR at the time points as indicated. […] Total viable cell numbers were then determined by the CellTiter-Glo Luminescent Cell Viability Assay (Promega) for the following five days. […] Cells were then plated to form neurospheres, and the surviving fractions were determined as described in methods. […] (F,G) Neurosphere formation of T3359 and T4105 CD 133+ cells treated with GSIs alone, 3-Gy radiation alone, or the combination was determined as described in FIG. 1E. *: p<0.05 by Student's t-test; #: p<0.001 by one-way ANOVA.
Growth Curve, caspase 3/7 assay, and clonogenic survival assay. […] Cell number was measured for 5 days using the CellTiter-Glo assay kit (Promega, Madison, […].). […]

[2] = system: Mcl-1; assay: Immunoblotting of Mcl-1; format: cell-based, human; details: 2 μM DAPT, T4302 CD133+ cells
Protocol: FIG. 5 is a set of immunoblots and a graph illustrating that the Notch pathway regulates radioresistance of glioma stem cells via the Akt pathway and Mcl-1. T4302 CD 133+ cells were infected with control lentivirus or lentivirus directing expression of NICD2. Cells were pre-treated with or without 2 μM DPAT for 4 hours and exposed to 3-Gy radiation. Irradiated cells were collected at 24 or 48 hours after radiation, and sham-irradiated cells were collected at 48 hours after radiation. (A, C, D) Protein levels of phospho-Akt (S473), total Akt, PTEN, Bcl-2, Bcl-xL, Mcl-1, phospho-p53 (S15), total p53 and PUMA were assessed by immunoblotting. Actin was blotted as the loading control. (B) Control cells or NICD2-expressing cells were pre-treated with 10 μM PI3K inhibitor, LY294002, or 50 μM Akt inhibitor III (SH-6), for 4 hours prior to radiation exposure. Relative caspase 3/7 activities were determined at 48 hours after radiation exposure. #: p<0.001, by one-way ANOVA.
Antibodies, DNA constructs, lentiviruses and other reagents. The antibodies purchased from Cell Signaling Technology (Danvers, M A) include phosphor-S296-Chk1 (2349), total Chk1 (2345), phosphor-T68-Chk2 (2661), total Chk2 (2662), phospho-5473 Akt (#9271), total Akt (#9272), PTEN (#9556), phospho-S15-p53 (#9286), Bcl-2 (#2870), Bcl-xL (#2764), Mcl-1 (#4572), Puma (#4976). […]

[3] = molecular target: γ-secretase; details: as suggested by the manufacturer; cited from earlier work

CC(NC(=O)Cc1cc(F)cc(F)c1)C(=O)NC(C(=O)OC(C)(C)C)c1ccccc1 [DAPT, N-[N-(3,5-Difluorophenacetyl-L-alanyl)]-S-phenylglycine t-Butyl Ester]
sham-treated cells more than GSI-treated cells (total cell number) [1]: 25%
levels of Mcl-1 [2]: decreased
levels of Mcl-1 proteins of a smaller size [2]: increased
IC50 [3]: 200 nM
